The results in this text go back to article PMC6010013, “Synthesis, physiochemical property and antimicrobial activity of novel quaternary ammonium salts” (Journal of Enzyme Inhibition and Medicinal Chemistry, 2017).

Molecules are shown by their SMILES.

One data set can be described thus: Haemolysis assay. Format: cell-based. Conditions: human red blood cells (erythrocyte suspension), 1 h at 37 ℃, read-out: Haemolysis rate. The method, then: The surfactant may be absorbed and penetrate to the cell membrane, where it makes osmotic phenomena by altering the permeability of membrane, which in turn causes the cellular lysis. Haemolysis assay gives quantitative estimation about haemoglobin release when red blood cells are treated with QASs. Haemolytic assay of QASs at different concentration was carried out in Table 4. […] For 5a-b, 6a-b, 10a-c, 13a-b, and 16a-d, their safe concentration can more than 100 μg/mL. Compared with BZK and CA, all QASs were safe to be used when they circulated into the blood in low concentration. […]
The human blood from healthy individual was collected in a tube containing heparin, and the blood was centrifuged at 1500 rpm for 3 min. The […] (Erythrocyte) was collected and plasma was discarded and further washed five times with sterile normal saline solution. Then the cells were diluted to 0.2% of their volume with normal saline solution. 2 mL of the diluted red blood cells suspension was mixed with (a) 2 mL of normal salinesolution as a negative control; (b) 2 mL of distilled water as a positive control; (c) 2 mL of QAS solution which were dispersed into normal saline solution at the different concentrations ranging from 3.125 to 400 μg/mL. Then the mixtures were shaken well and incubated for 1 h at 37 ℃. Finally, the mixtures were centrifuged for 5min at 2000 r/min and the absorbances of supernatant at 540 nm was measured by a microplate reader (Multiskan MK3-Thermo Labsystems, USA). The hemolysis ratio was calculated as follows: The hemolysis ratio(%) = (OD Sample−OD Negative)/(OD Positive −OD Negative) ×100%. The hemolysis evaluation of QASs was performed in triplicate and results were expressed as the mean ± SD.

The test system of a further data set is Aspergillus niger. In words: MIC, broth tube dilution. Conditions: 72 h, 28 ℃, read-out: Minimal inhibitory concentration (MIC). Format: cell-based. An excerpt: (§1) In this paper, antimicrobial activities of 24 QASs were detected by quantitative tests. […] Benzalkonium chloride (BZK) and chlorhexidine acetate (CA) was selected as positive controls. Representative compound POT-C12QAS (2) which synthesised and evaluated in previous work was also taken as a reference compound in MIC, MBC and cytotoxicity tests. […]
(§2) agriculture were used as target pathogens in this study, including three strains of Gram-positive bacteria (S. Aureus, α-H-tococcus, β-H-tococcus), three strains of Gram-negative bacteria (E. coli, P. aeruginosa, Proteus vulgaris) and four strains of fungi (Canidia albicans, Cytospora mandshurica, Physalospora piricola, Aspergillus niger). The antimicrobial tests were assayed, according to standard CLSI methods for antimicrobial dilution susceptibility tests to measure the minimum inhibitory concentration (MIC) and minimum bactericidal concentration (MBC)2.
(§3) A broth tube dilution method was followed to determine the MIC values for all the screened compounds against the micro-organisms, and for comparison benzalkonium chloride (BZK) and chlorhexidine acetate (CA) was used as a reference. For sample preparation, each of the test compounds and reference were dissolved in DMSO or sterile water at a concentration of 1600 μg/mL, and further dilutions of the compounds and reference in culture medium MHB (Muller-Hinton Broth) were prepared at the required quantities of 400, 200, 100 etc., down to 0.39 μg/mL. Bacterial strains and fungal strains were maintained on MHA (Muller-Hinton Agar) medium at 37℃ or 28 ℃ for 12 h or 72h, respectively. The microbial inocula were prepared by suspension in 10 mL of culture medium for colonies from culture on MHA. The cell density of each inoculum was adjusted in culture medium of a 0.5 McFarland standard (1-2×10^8 CFU/mL). The final amount applied was 10^5 CFU/mL for bacteria and fungi. The microbial inocula were added to the twofold diluted samples. One growth control tube was prepared […] the addition of the compound and one blank tube was prepared without the addition of the microorganism. MIC values were read after incubation at 37℃ or 28 ℃ for bacterial and fungal strains, respectively. After 12 h or 72h, the last tube with no growth of micro-organisms was recorded to represent the MIC value expressed in μg/ml. All experiments were carried out three times. […]

A further data set has as its system α-H-tococcus. The data set is described as follows: MIC, broth tube dilution. Format: cell-based. Conditions: 12 h, 37℃, read-out: Minimal inhibitory concentration (MIC).
Description: as §1, §2, §3

For a further data set, the system named is P. aeruginosa. The data set is described as follows: MIC, broth tube dilution. Format: cell-based. Conditions: Pseudomonas aeruginosa, 12 h, 37℃, read-out: Minimal inhibitory concentration (MIC).
Description: as §1, §2, §3

In the next data set the test system is E. coli. In words: MIC, broth tube dilution. Type of data set: cell-based. Conditions: Escherichia coli, 12 h, 37℃, read-out: Minimal inhibitory concentration (MIC).
Description: as §1, §2, §3

A further data set relates to Physalospora piricola. The data set is described as follows: MIC, broth tube dilution. Type of data set: cell-based. The note with it: 72 h, 28 ℃, read-out: Minimal inhibitory concentration (MIC).
Description: as §1, §2, §3

Another data set relates to Canidia albicans. The data set is described as follows: MIC, broth tube dilution. Format: cell-based. The note with it: 72 h, 28 ℃, read-out: Minimal inhibitory concentration (MIC).
Description: as §1, §2, §3

The next data set has as its system Proteus vulgaris. In words: MIC, broth tube dilution. Type of data set: cell-based. The note with it: 12 h, 37℃, read-out: Minimal inhibitory concentration (MIC).
Description: as §1, §2, §3

For another data set, the system named is Cytospora mandshurica. In words: MIC, broth tube dilution. Format: cell-based. Conditions: Cytospora, 72 h, 28 ℃, read-out: Minimal inhibitory concentration (MIC).
Description: as §1, §2, §3

A further data set concerns S. aureus. The data set is described as follows: MIC, broth tube dilution. Format: cell-based. The note with it: Staphylococcus aureus, 12 h, 37℃, read-out: Minimal inhibitory concentration (MIC).
Description: as §1, §2, §3

The next data set concerns β-H-tococcus. The data set is described as follows: MIC, broth tube dilution. Type of data set: cell-based. Conditions: 12 h, 37℃, read-out: Minimal inhibitory concentration (MIC).
Description: as §1, §2, §3

Another data set in a line: Cytotoxicity, MTT assay. Format: cell-based, human. The note with it: human, MTT, 24 h. Here is the method: These six series of antimicrobial compounds may be applied to daily or clinical disinfectants for unbroken skin and trauma, or agricultural fungicides alternatively. Thus, their cytotoxicity for skin or body tissues are crucial. In this study, the cytotoxicity of target compounds was evaluated for human immortalised epidermal (HaCat) and human normal liver (LO2) cell line using MTT assay. […] The IC50 values of 5a, 6a, 10a, 16a, 16 b were about more than 50 μg/mL for LO2 and HaCat.
Cytotoxicity Testing with MTT Method
Human immortalized epidermal cells (HaCat) line were cultured in Dulbecco’s modified Eagle’s medium containing 10% fetal bovine serum, 1% penicillin, and 1% streptomycin at 37°C in a 5% CO2/95% air incubator MCO-15AC (SANYO). Human normal liver cells (LO2) line were cultured in Roswell Park Memorial Institute medium containing 10% fetal bovine serum, 1% penicillin, and 1% streptomycin at 37°C in a 5% CO2/95% air incubator MCO-15AC (SANYO). HaCat or LO2 cells in 96-well plate were adjusted to 1.0 × 10^5 cells mL-1 and cells were passed and cell supernatant was pour out before plating on glass slide at 37°C, 5% CO2 for 24 h. Cells were pretreated with 100 μL QAS for 24 h and cell supernatant with QAS was pour out and washed with PBS buffer system. Then, the cells were treated with the MTT solution (MTT, 3-(4,5-dimethythiazol-2-yl)-2,5-diphenyl-tetrazolium bromide, 20 μL, 5 mg/mL) for 4 h. The dark blue formazan crystal formed in the intact cells was solubilized with dimethyl sulfoxide, and absorbance at 570 nm was measured with a microplate reader (Multiskan MK3-Thermo Labsystems, USA). The results were expressed as percentage of the control value from the normal cells without treatments of QAS. […]
For orientation: Formazan colour is commonly taken as a measure of viable cells.

By IC50 is commonly meant the midpoint of a concentration-inhibition curve. Lower therefore signals greater potency. Take `C[N+](CCO)(CCO)CCCCCCCCCCCCSc1nc2ccccc2s1` [Compound 13d]: the hemolysis at 1 h, 6.25 μg/mL in the data set “Haemolysis assay” (6.25 μg/mL) came out at 0.56 ± 0.13%. Further, the hemolysis at 1 h, 12.5 μg/mL in “Haemolysis assay” (12.50 μg/mL) came to 1.5 ± 0.72%. In addition, in “Haemolysis assay” (25.00 μg/mL), the hemolysis at 1 h, 25 μg/mL amounted to 3.98 ± 1.03%. The hemolysis at 1 h, 50 μg/mL in “Haemolysis assay” (50.00 μg/mL) is 11.2 ± 2.86%. Besides, in the data set “Haemolysis assay” (100.00 μg/mL), the hemolysis at 1 h, 100 μg/mL was 48.6 ± 3.54%. In addition, the hemolysis at 1 h, 200 μg/mL in the data set “Haemolysis assay” (200.00 μg/mL) worked out at 65.2 ± 3.91%. Also, the hemolysis at 1 h, 400 μg/mL in “Haemolysis assay” (400.00 μg/mL) came to 83.7 ± 4.12%. Besides, the MIC was ~3.12 µg/mL in the data set with Aspergillus niger; ~12.5 µg/mL in the data set on α-H-tococcus; ~25 µg/mL in the data set with P. aeruginosa; ~25 µg/mL in the data set with E. coli; ~3.12 µg/mL with Physalospora piricola; ~6.25 µg/mL in the data set on Canidia albicans. Also, the MIC was ~25 µg/mL in the data set on Proteus vulgaris, ~1.56 µg/mL in the data set with Cytospora mandshurica, ~6.25 µg/mL in the data set with S. aureus and ~1.56 µg/mL in the data set on β-H-tococcus. Moreover, the IC50 at 24 h in the data set “Cytotoxicity, MTT assay” (HaCat cells) is 6.02 ± 0.35 µg/mL; in the data set “Cytotoxicity, MTT assay” (LO2 human normal liver cells, LO2 cells), 8.96 ± 0.46 µg/mL.
